Reference: PubChem BioAssay (NCI)
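How tested: cells in 96-well plates exposed to compound for 48 hours at five concentrations. The concentration for 50% growth inhibition is given as GI50. TGI marks complete inhibition of growth.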 Peptide text beside a SMILES is read from it. * marks the point of attachment. X34 = O=C(c1ccc(-c2ccc(Cl)cc2Cl)o1)*

How the values were obtained:
Test in all cases: DTP human tumour cell line panel, 48 h
COLO 205 colon = system: COLO 205 colon
UACC-62 melanoma = system: UACC-62 melanoma
KM12 colon = system: KM12 colon
CCRF-CEM leukemia = system: CCRF-CEM leukemia
SN12C renal = system: SN12C renal
HT29 colon = system: HT29 colon
EKVX NSCLC = system: EKVX NSCLC
K-562 leukemia = system: K-562 leukemia
SNB-19 CNS = system: SNB-19 CNS
A498 renal = system: A498 renal
SK-OV-3 ovarian = system: SK-OV-3 ovarian
MDA-N = system: MDA-N

SMILES | GI50 (COLO 205 colon) | TGI (COLO 205 colon) | GI50 (UACC-62 melanoma) | GI50 (KM12 colon) | TGI (KM12 colon) | GI50 (CCRF-CEM leukemia) | TGI (CCRF-CEM leukemia) | TGI (SN12C renal) | GI50 (HT29 colon) | TGI (HT29 colon) | GI50 (EKVX NSCLC) | TGI (EKVX NSCLC) | GI50 (K-562 leukemia) | TGI (K-562 leukemia) | TGI (SNB-19 CNS) | GI50 (A498 renal) | TGI (A498 renal) | TGI (UACC-62 melanoma) | TGI (SK-OV-3 ovarian) | TGI (MDA-N)
COc1cc2c3c(n(CCCn4cncn4)c(=O)c2cc1OC)-c1cc2c(cc1C3=O)OCO2 | > 100 µM | > 100 µM | < 0.01 µM | > 100 µM | > 100 µM | < 0.01 µM | 3.5 µM | > 100 µM | > 73.1 µM | > 100 µM | > 84.1 µM | > 100 µM | 1.49 µM | 28.1 µM | > 100 µM | 16.8 µM | > 100 µM | – | – | –
COc1ccc(C(=O)c2nc3ccccc3nc2N2CCN(c3ccccc3)CC2)cc1OC | – | > 100 µM | – | – | > 100 µM | – | > 100 µM | – | – | > 100 µM | – | > 100 µM | – | > 100 µM | > 100 µM | – | > 100 µM | > 100 µM | > 100 µM | > 100 µM
COC(=O)C(CC(C)C)NC(=O)C(Cc1ccccc1)NC(=O)C1CCCN1C(=O)C(CO)NC(=O)c1ccc(-c2ccc(Cl)cc2Cl)o1 (stereo not given) (X34-SPFL-OMe; configuration not given here) | – | 30.8 µM | – | – | > 100 µM | – | > 100 µM | 89.9 µM | – | 40.7 µM | – | – | – | 89.2 µM | > 100 µM | – | 76.5 µM | > 100 µM | 25.7 µM | > 100 µM
COc1nc2ccc(CNc3ccc(C(=O)NC(CCC(=O)O)C(=O)O)cc3)cc2nc1OC (stereo not given) | – | > 100 µM | – | – | > 100 µM | – | > 100 µM | > 100 µM | – | > 100 µM | – | > 100 µM | – | > 100 µM | > 100 µM | – | > 100 µM | > 100 µM | > 100 µM | > 100 µM
O=Cc1ccccc1CCn1c(=O)c2cc3c(=O)n(CCc4ccccc4C=O)c(=O)c3cc2c1=O | – | – | – | – | > 100 µM | – | > 100 µM | > 100 µM | – | > 100 µM | – | – | – | > 100 µM | > 100 µM | – | > 100 µM | > 100 µM | > 100 µM | –
CN1c2c(nc(N)[nH]c2=O)NCC1CCNc1ccc(C(=O)NC(CCC(=O)O)C(=O)O)cc1 (stereo not given) | – | 2750 µM | – | – | 2220 µM | – | 1000 µM | 2350 µM | – | 1310 µM | – | 2720 µM | – | 841 µM | 3250 µM | – | 2820 µM | 1650 µM | 2350 µM | 430 µM
O=c1oc2cc(O)ccc2c2oc3cc(O)ccc3c12 | – | 72.5 µM | – | – | > 125 µM | – | > 125 µM | > 88.7 µM | – | > 125 µM | – | > 125 µM | – | > 125 µM | 91.7 µM | – | 3.4 µM | > 125 µM | 70.8 µM | –
CC(=O)OC12CC[N+]3(C)CCCCC3C1=Nc1ccccc12 (stereo not given) | – | > 100 µM | – | – | > 100 µM | – | > 100 µM | > 100 µM | – | > 100 µM | – | > 100 µM | – | > 100 µM | > 100 µM | – | > 100 µM | > 100 µM | > 100 µM | > 100 µM
Nc1nc(SCCNC(=O)CCc2ccc(O)c(I)c2)nc2c1ncn2C1OC(CO)C(O)C1O (stereo not given) | – | > 100 µM | – | – | > 100 µM | – | > 100 µM | > 100 µM | – | > 100 µM | – | > 100 µM | – | > 100 µM | > 100 µM | – | > 100 µM | > 100 µM | > 100 µM | –
CCOc1ccccc1Nc1ccc(N)cc1S(=O)(=O)O | – | – | – | – | > 100 µM | – | – | > 100 µM | – | > 100 µM | – | > 100 µM | – | > 100 µM | > 100 µM | – | > 100 µM | > 100 µM | – | > 100 µM
CC[C@@H]1CSC(/C=C/C2OC3OC(C)(C)OC3C3OC(C)(C)OC23)=N1 (stereo not given in full) | – | 18 µM | – | – | 33.3 µM | – | – | 23.9 µM | – | 15.9 µM | – | 25.6 µM | – | 62.4 µM | 54.8 µM | – | – | 26.8 µM | 91.4 µM | 21.3 µM
